Measured values from patent publication US20190133997A1, “ARTEMISININ ANALOG, AND USE, METHOD, AND COMPOSITION FOR PROMOTING LIPID CATABOLISM AND IMPROVING SUGAR METABOLISM” (FUDAN UNIVERSITY, priority 2016, published 2019).

Tested on: BMP4-directed C3H10T1/2
Assay: Artemisinin and analogues on BMP4-directed C3H10T1/2 (morphology, Western blot)
Assay type: cell-based
Details: for cell morphology of C3H10T1/2: concentration shown in FIG. 8, from Day 0 of differentiation, vs control
Description: 4.3.1 Culture and Differentiation of C3H10T1/2 According to Method 2.4.1.
Artemisinin, artesunate and dihydroartemisinin were stored in DMSO at a storage concentration of 10 mMol/L. The concentration shown in FIG. 8 was added on Day 0 of differentiation. Fresh medium was replaced every two days, and the corresponding concentrations of compounds were added until the cells differentiated to mature.
The method for extracting C3H10T1/2 cell total protein was the same as 2.4.3;
Western blot method and catalog number of antibody was the same as 2.4.4.

| SMILES | cell morphology of C3H10T1/2 | expression of brown fat-related genes (C3H10T1/2) | expression level of UCP1 (dihydroartemisinin 1, 2.5, 5, 7.5 Mol/L, Western blot) | expression level of PGC1α (dihydroartemisinin, Western blot) |
| --- | --- | --- | --- | --- |
| C[C@@H]1CC[C@H]2[C@@H](C)C(=O)O[C@@H]3O[C@@]4(C)CC[C@@H]1[C@]32OO4 [artemisinin] | exhibited similar morphological characteristics |  |  |  |
| C[C@H]1[C@H](OC(=O)CCC(=O)O)O[C@@H]2O[C@@]3(C)CC[C@H]4[C@H](C)CC[C@@H]1[C@@]24OO3 [artesunate] | exhibited similar morphological characteristics |  |  |  |
| C[C@H]1[C@@H](O)O[C@@H]2O[C@@]3(C)CC[C@H]4[C@H](C)CC[C@@H]1[C@@]24OO3 [dihydroartemisinin] | exhibited similar morphological characteristics | up-regulated | gradually increase with the increase of the concentration of dihydroartemisinin | gradually increase with the increase of the concentration of dihydroartemisinin |
